Measured values from EP0871441B1, “DFMO AND TAXOL FOR THE TREATMENT OR PREVENTION OF BREAST CANCER” (Ilex Oncology, Inc., priority 1996, dated 1998).
Values joined by “and” are separate entries in the source; they are usually repeats but may differ in a detail not shown here. Equal entries are not always repeated.

Legend:
MCF-7 cells = settings: cited from earlier work
[1] = tested on: MDA-MB-231 human breast tumor; assay: Tumor growth inhibition of MDA-MB-231 breast tumor implanted s.c. in nude mice; type: in vivo; settings: for % Tumor Growth Inhibition: with respect to control
Method: The MDA-MB-23 1 human breast tumor cell line is estrogen independent. The cell line cannot be maintained in vitro and so was maintained in vivo in host nude mice. The tumor growth inhibition studies were conducted by transplanting MDA-MB-231 tumor cells from the host nude mouse to the subject and control nude mice of the study. The MDA-MB-231 cell line can be obtained from the American Type Culture Collection as ATCC HTB 26. Nude mice are implanted s.c. by trocar with fragments of MDA-MB-231 human breast tumor cells harvested from s.c. growing tumors in nude mice hosts. When tumors are approximately 5 mm x 5 mm in size (usually about ten to twenty days after inoculation), the animals are pair-matched into treatment and control groups. Each group contains 10 tumored mice, each of which is ear-tagged and followed individually throughout the experiment. The administration of drugs or vehicle begins the day the animals are pair-matched (Day 1). The doses, route of drug administration and schedule are selected as appropriate for the study in question. If the MTD dose of an agent is not known, it is determined in an initial dosing experiment in non-tumored mice. The experiment is usually terminated when control tumors reach a size of 1 g or 2 g for the tumor models. Mice are weighed twice weekly, and tumor measurements are taken by calipers twice weekly, starting on day 1. These tumor measurements are converted to mg tumor weight by a well-known formula, and from these calculated tumor weights, the termination date can be determined. Upon termination, all mice are weighed, sacrificed, and their tumors excised. Tumors are weighed, and the mean tumor weight per group is calculated. In this model, the mean treated tumor weight/mean control tumor weight x 100% (T/C) is subtracted from 100% to give the tumor growth inhibition (TGI) for each group. The final weight of a given tumor is subtracted from its own weight at the start of treatment on day 1. This difference divided by the initial tumor weight is the % shrinkage. A mean % tumor shrinkage can be calculated from data from the mice in a group that experienced regressions. If the tumor completely disappears in a mouse, this is considered a complete regression or complete tumor shrinkage. If desired, mice with partial or total tumor regressions can be kept alive past the termination date to see whether they live to become long term, tumor-free survivors. Statistics are performed on the data using primarily the log rank-value test. In the above procedure, a reduction in the growth, number, size, metastasis and/or reoccurrence of tumor in the animal is deemed a positive response.

MCF-7 human breast tumor = assay: Tumor growth inhibition of MCF-7 mammary carcinoma implanted s.c. in ovariectomized nude mice; type: in vivo
Method: Female ovariectomized nude mice are implanted s.c. by trocar with 21 day release 0.25 mg estrogen pellets. The following day the mice are implanted s.c. by trocar fragments of MCF-7 mammary carcinomas harvested from s.c. growing MCF-7 tumors in nude mice hosts. When tumors are approximately 5 mm x 5 mm in size (about twenty days after inoculation), the animals are pair-matched into treatment and control groups, and the estrogen pellets removed. Each group contains 10 tumored mice, each of which is ear-tagged and followed individually throughout the experiment. The administration of drugs or vehicle begins the day the animals are pair-matched (Day 1). The doses, route of drug administration and schedule are selected as appropriate for the study in question. If the MTD dose of an agent is not known, it is determined in an initial dosing experiment in non-tumored mice. Mice are weighed twice weekly, and tumor measurements are taken by calipers twice weekly, starting on Day 1. These tumor measurements are converted to mg tumor weight by a well-known formula, L^2xW/2. The experiment is terminated when control tumors reach a size of 1 gram. […] Tumors are weighed and the mean tumor weight per group is calculated. […] A mean % tumor shrinkage can be calculated from data from the mice in a group that experienced tumor regressions. […]

MCF-7 = settings: MCF-7, estrogen-responsive; cited from earlier work
T-47D = settings: estrogen-responsive; cited from earlier work
BT-20 = settings: BT-20, estrogen-unresponsive; cited from earlier work
ODC = biological target: T1, ODC (Homo sapiens, UniProt P11926); settings: DFMO 5 mM, MCF-7 cells; cited from earlier work
T1 construct: endogenous in cells; host or cells: MCF-7 cells, estrogen-treated
T1 sequence (P11926 1-461): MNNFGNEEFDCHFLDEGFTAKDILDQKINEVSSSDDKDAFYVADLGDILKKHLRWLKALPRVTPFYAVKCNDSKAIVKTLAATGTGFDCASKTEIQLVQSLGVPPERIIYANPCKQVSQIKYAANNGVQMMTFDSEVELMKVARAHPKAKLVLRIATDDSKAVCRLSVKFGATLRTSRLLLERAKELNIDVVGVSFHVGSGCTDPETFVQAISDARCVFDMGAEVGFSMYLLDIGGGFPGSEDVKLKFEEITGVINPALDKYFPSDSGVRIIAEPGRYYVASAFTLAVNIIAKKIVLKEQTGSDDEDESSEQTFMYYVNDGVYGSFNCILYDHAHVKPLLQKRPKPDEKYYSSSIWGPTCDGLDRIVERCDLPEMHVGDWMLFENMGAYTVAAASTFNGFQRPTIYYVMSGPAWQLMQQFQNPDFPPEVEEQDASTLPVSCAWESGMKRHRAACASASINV

[2] = DFMO alone 0.5% in drinking water, p.o., ad libitum
[3] = DFMO alone 3% in drinking water, p.o., ad libitum
[4] = taxol alone 20 mg/kg, i.p., qdx5

Compound: 4-hydroxytamoxifen
- cell growth reduced to (MCF-7 cells; 0.1µM 4-hydroxytamoxifen, remaining growth): 72%

Compound: NCCC[C@](N)(C(=O)O)C(F)F (racemic) [DFMO, alpha-difluoromethylornithine]
- Final Tumor Wt. (Mean±SEM) [1, 2]: 1276.3±398.6
- % Tumor Growth Inhibition [1, 2]: 19% and 19.2%
- Final Tumor Wt. (Mean±SEM) [1, 3]: 782.7±111.4
- % Tumor Growth Inhibition [1, 3]: 52% and 51.8%
- tumor growth inhibition (TGI) with respect to control (MCF-7 human breast tumor; DFMO alone 0.5% wt in drinking water, p.o., ad libitum): 44%
- proliferation of MCF-7 cells, % of the controls (MCF-7 cells; 0.1 mM DFMO, remaining proliferation): 75%
- inhibition of proliferation (MCF-7): 80%
- inhibition of proliferation (T-47D): 80%
- inhibition of proliferation (BT-20): 50%
- ODC activity (ODC): fully inhibited

Compound: CC(=O)O[C@H]1C(=O)[C@@]2(C)[C@H]([C@H](OC(=O)c3ccccc3)[C@]3(O)C[C@H](OC(=O)[C@H](O)[C@@H](NC(=O)c4ccccc4)c4ccccc4)C(C)=C1C3(C)C)[C@]1(OC(C)=O)CO[C@@H]1C[C@@H]2O [Taxol]
- Final Tumor Wt. (Mean±SEM) [1, 4]: 301.6±72.9
- % Tumor Growth Inhibition [1, 4]: 83.7%
- % Tumor Growth Inhibition ([1]; taxol alone 20 mg/kg, i.p., qdx5, listed as taxol): 84%
- tumor growth inhibition (TGI) with respect to control (MCF-7 human breast tumor; taxol alone 16 mg/kg, i.p., qdx5): 28%
